From patent US20240173341A1, “COMPOSITION FOR AMELIORATING OR TREATING DEMENTIA CONTAINING 2'-FUCOSYLLACTOSE” (Advanced Protein Technologies Corp., priority 2022, published 2024)

Experiments:
TNF-α = test: Neuroinflammatory marker analysis (ELISA), TNF-α; assay type: in vivo, mouse; settings: 2′-FL-administered dementia group compared to the dementia group; FIG. 12
Method: (§1) The experimental animals used herein were 24-week-old 5×FAD (Aβ plaques) Alzheimer's models. The experimental animals were raised at a temperature of 22±3° C., at a relative humidity of 30±10%, and at an illuminance of 150 to 300 Lux for a lighting period of 12 hours (08:00˜20:00), and five or less animals were raised in each polycarbonate cage. The distilled water (DW)-administered group was used as a negative control (vehicle), and a donepezil-administered group was used as a positive control. The term “dementia group” refers to 5×FAD mice administered distilled water, and the term “normal group” refers to wild-type mice administered distilled water. The concentrations of neuroinflammatory cytokines, TNF-α and IL-6 in mouse brain tissue homogenates were analyzed using enzyme-linked immunosorbent assay (ELISA).

IL-6 = test: Neuroinflammatory marker analysis (ELISA), IL-6; assay type: in vivo, mouse; settings: 2′-FL-administered dementia group compared to the dementia group; FIG. 13
Method: as §1

[1] = system: 5×FAD (Aβ plaques) Alzheimer's models; test: Y-maze test; assay type: in vivo, mouse; settings: 5×FAD mice, oral 8 weeks, all concentrations, compared to the dementia group; n=8~12, FIG. 6
Method: (§2) The experimental animals used herein were 24-week-old 5×FAD (Aβ plaques) Alzheimer's models. The experimental animals were raised at a temperature of 22±3° C., at a relative humidity of 30±10%, and at an illuminance of 150 to 300 Lux for a lighting period of 12 hours (08:00˜20:00), and five or less animals were raised in each polycarbonate cage.
The distilled water (DW)-administered group was used as a negative control (vehicle), and a donepezil-administered group was used as a positive control. The term “dementia group” refers to 5×FAD mice administered distilled water and the term “normal group” refers to wild-type mice administered distilled water. […]
Specifically, the arms of the Y-maze were randomly designated as A, B, and C, the mouse was placed on one arm and allowed to move freely for 5 minutes, and then the arm where the mouse entered was recorded. This record was limited to cases where the tail thereof completely entered, and cases where it entered the same arm again were also recorded (FIG. 5). […]
The case where the mouse entered three different arms one after another was given one point (actual alteration). Alteration behavior is defined as a case where the mouse enters all of three arms in turn and the result was calculated in accordance with Equation 1 below (maximum change: total number of entries—2).

wild-type mice = test: Water maze test, normal group; assay type: in vivo, mouse; settings: oral 8 weeks, compared to distilled water (vehicle), FIGS. 2 and 3
Method: The distilled water (DW)-administered group was used as a negative control (vehicle), and a donepezil-administered group was used as a positive control. The term “dementia group” refers to 5×FAD mice administered distilled water and the term “normal group” refers to wild-type mice administered distilled water. 2′-FL was orally administered at various concentrations to wild-type and 5×FAD mouse groups for 8 weeks and then a water maze test was performed. Specifically, a circular water tank with a diameter of 150 cm and a height of 60 cm was filled to a height of 30 cm with water, and an escape platform was installed in one area of the four quadrants of the tank. During the training period, the escape platform was placed 1 cm below the surface of the water in the tank so that it was invisible, training was repeated at the identical water entry point three times a day, and recording was performed using a video tracking system (SMART v3.0 panlab SL). When the experimental animal reached the escape platform within 60 seconds, it was allowed to stay on the escape platform for 15 seconds, and when it could not find the escape platform, it was guided to the escape platform by hand and trained to stay on the escape platform alone for 20 seconds. […] At this time, the time (sec) to first reach the location of the escape platform and the number of target crossings were recorded (FIG. 1). […]

[2] = system: amyloid beta accumulated in mouse brain tissue; test: Amyloid beta accumulation analysis (thioflavin staining of cleared brain tissue); assay type: in vivo; settings: for Ab number / Ab number/volume: oral, 5×FAD mice
Method: as §2
The term “dementia group” refers to 5×FAD mice administered distilled water, and the term “normal group” refers to wild-type mice administered distilled water.
For the amyloid beta accumulated in mouse brain tissue, brain tissue over 1 mm in size was made transparent using a tissue transparency technique, stained with thioflavin, imaged in three dimensions, and then quantified as plaques for each brain region using the Imaris program.
In addition, three 1 mm-thick brain tissues were collected from each group, the volumes thereof were measured, and the total number of accumulated amyloid beta was measured.

[3] = system: 5×FAD (Aβ plaques) Alzheimer's models; test: Water maze test, dementia group; assay type: in vivo, mouse
Method: The experimental animals used herein were 24-week-old 5×FAD (Aβ plaques) Alzheimer's models. The experimental animals were raised at a temperature of 22±3° C., at a relative humidity of 30±10%, and at an illuminance of 150 to 300 Lux for a lighting period of 12 hours (08:00˜20:00), and five or less animals were raised in each polycarbonate cage. The distilled water (DW)-administered group was used as a negative control (vehicle), and a donepezil-administered group was used as a positive control. The term “dementia group” refers to 5×FAD mice administered distilled water and the term “normal group” refers to wild-type mice administered distilled water. 2′-FL was orally administered at various concentrations to wild-type and 5×FAD mouse groups for 8 weeks and then a water maze test was performed. Specifically, a circular water tank with a diameter of 150 cm and a height of 60 cm was filled to a height of 30 cm with water, and an escape platform was installed in one area of the four quadrants of the tank. During the training period, the escape platform was placed 1 cm below the surface of the water in the tank so that it was invisible, training was repeated at the identical water entry point three times a day, and recording was performed using a video tracking system (SMART v3.0 panlab SL). When the experimental animal reached the escape platform within 60 seconds, it was allowed to stay on the escape platform for 15 seconds, and when it could not find the escape platform, it was guided to the escape platform by hand and trained to stay on the escape platform alone for 20 seconds. In the probe test on the 6th day, the escape platform was removed and the experimental animals were allowed to swim freely for 60 seconds. At this time, the time (sec) to first reach the location of the escape platform and the number of target crossings were recorded (FIG. 1). FIG. 1 is a schematic diagram illustrating the water maze test method.

[4] = system: phosphorylated tau protein; test: Tau protein hyperphosphorylation analysis (IHC); assay type: in vivo, mouse
Method: The experimental animals used herein were 24-week-old 5×FAD (Aβ plaques) Alzheimer's models. The experimental animals were raised at a temperature of 22±3° C., at a relative humidity of 30±10%, and at an illuminance of 150 to 300 Lux for a lighting period of 12 hours (08:00˜20:00), and five or less animals were raised in each polycarbonate cage. The distilled water (DW)-administered group was used as a negative control (vehicle), and a donepezil-administered group was used as a positive control. The term “dementia group” refers to 5×FAD mice administered distilled water, and the term “normal group” refers to wild-type mice administered distilled water. Hyperphosphorylation (p-tau) of tau protein was analyzed through image observation based on immunohistochemistry (IHC) using an antibody that detects tau protein expressed in mouse brain tissue and phosphorylated tau protein.

[5] = 2′-FL 300 group, 1st brain tissue
[6] = 2′-FL 300 group, 2nd brain tissue
[7] = 2′-FL 300 group, 3rd brain tissue
[8] = 2′-FL 600 group, 1st brain tissue
[9] = 2′-FL 600 group, 2nd brain tissue
[10] = 2′-FL 600 group, 3rd brain tissue
[11] = 2′-FL 1200 group, 1st brain tissue
[12] = 2′-FL 1200 group, 2nd brain tissue
[13] = 2′-FL 1200 group, 3rd brain tissue

## 2′-fucosyllactose [2′-FL]
TNF-α
  concentration of TNF-α: significantly decreased
IL-6
  concentration of IL-6: significantly decreased
[1]
  spontaneous alteration (SA): significantly increased SA
wild-type mice
  time to arrive at the escape platform during the water maze training period: reduced the time to arrive at the escape platform
[2]; [5]
  Ab number: 23900
  Ab number/volume: 8628
[2]; [6]
  Ab number: 26900
  Ab number/volume: 9642
[2]; [7]
  Ab number: 42000
  Ab number/volume: 12174
[2]; 2′-FL 300 group, Avr. of three brain tissues
  Ab number: 30933
[2]; 2′-FL 300 group, Avr. of three brain tissues, *p ≤ 0.05 vs. Vehicle
  Ab number/volume: 10148*
[2]; [8]
  Ab number: 32000
  Ab number/volume: 11722
[2]; [9]
  Ab number: 38400
  Ab number/volume: 11852
[2]; [10]
  Ab number: 20800
  Ab number/volume: 5762
[2]; 2′-FL 600 group, Avr. of three brain tissues
  Ab number: 30400
[2]; 2′-FL 600 group, Avr. of three brain tissues, *p ≤ 0.05 vs. Vehicle
  Ab number/volume: 9778*
[2]; [11]
  Ab number: 34300
  Ab number/volume: 10719
[2]; [12]
  Ab number: 31900
  Ab number/volume: 7800
[2]; [13]
  Ab number: 37000
  Ab number/volume: 12092
[2]; 2′-FL 1200 group, Avr. of three brain tissues
  Ab number: 34400
[2]; 2′-FL 1200 group, Avr. of three brain tissues, *p ≤ 0.05 vs. Vehicle
  Ab number/volume: 10203*
[2]; brain cortex of dementia group, n=8-12, FIG. 7
  amyloid beta accumulation: decrease in amyloid beta accumulation
[2]; brain hippocampus of dementia group, n=8-12, FIG. 8
  amyloid beta accumulation: decrease in amyloid beta accumulation
[2]; dementia group, three 1 mm-thick brain tissues per group, Table 1, FIG. 9
  accumulation of amyloid beta throughout the brain: significantly inhibited
[3]; 5th day of water maze training, 2′-FL-administered dementia group compared to the dementia group, FIG. 4
  arrival route to the escape platform: simplified
[3]; all concentrations, 2′-FL-administered dementia group compared to the dementia group
  spatial memory through training: significantly improved spatial memory
[3]; dementia group (5×FAD mice), oral 8 weeks, compared to distilled water (vehicle), FIGS. 2 and 3
  time to arrive at the escape platform during the water maze training period: reduced the time to arrive at the escape platform
[4]; brain cortex of dementia group, n=8~12, FIG. 10
  inhibition of tau protein hyperphosphorylation: no significant effect
[4]; brain hippocampus of dementia group, n=8~12, FIG. 11
  inhibition of tau protein hyperphosphorylation: no significant effect
